Converted amounts (≈) assume the structure as drawn.
Columns and labels:
[1] = tested on: P. falciparum D10 (CQ-sensitive) strain; test: P. falciparum drug susceptibility assay; assay type: cell-based; settings: for IC50: Plasmodium falciparum, D10, 72 h, read-out: P. falciparum IC50 D10; for SID10: IC50(NHDF)/IC50(D10)
human erythrocytes [2] = test: Hemolytic activity in the presence of 10 μM FP; assay type: cell-based; settings: for Hemolysis of human erythrocytes in the presence of FP: 50 and 100 μM, 2 h, 37 °C
[3] = tested on: P. falciparum W2 (CQ-resistant) strain; test: P. falciparum drug susceptibility assay; assay type: cell-based; settings: for SIW2: IC50(NHDF)/IC50(W2); for IC50: Plasmodium falciparum, W2, 72 h, read-out: P. falciparum IC50 W2; for RI (resistance index): ratio of IC50 against W2 and D10 strains
human erythrocytes [4] = test: Hemolytic activity without FP; assay type: cell-based; settings: 50 and 100 μM, 2 h, 37 °C
Cytotoxic activity test = assay type: cell-based, human; settings: human, NHDF cells
[5] = In vivo pharmacokinetic evaluation in mice
NHDF cells = test: Cytotoxic activity test; assay type: cell-based, human; settings: 24 and 48 h, MTT, up to twice the IC50 for P. falciparum
[6] = male, CD-1, mouse, plasma, po, 0.02 mg/kg

| SMILES | IC50 [1] [µg/mL] | Hemolysis of human erythrocytes in the presence of FP (human erythrocytes [2]) | SIW2 [3] | IC50 [3] [µg/mL] | Hemolysis of human erythrocytes without FP (human erythrocytes [4]) | SID10 [1] | IC50 (Cytotoxic activity test) [µg/mL] | RI (resistance index) [3] | also measured |
| --- | --- | --- | --- | --- | --- | --- | --- | --- | --- |
| CCN(CC)CCCC(C)Nc1ccnc2cc(Cl)ccc12 (stereo not shown) [CQ, chloroquine diphosphate, reference compound] | 0.0184 ± 0.008 | drastically increased the percentage of hemolysis | 80.5 | 0.262 ± 0.102 | – | – | – | – | – |
| c1ccc2c(c1)[nH]c1ncccc12 [Compound 1, 9H-1-azacarbazole] | > 5 | – | – | > 5 | – | – | – | – | – |
| c1ccc2c(c1)[nH]c1cnccc12 [Compound 2, 9H-2-azacarbazole] | 3.33 ± 0.742 (≈ 19.8 µM) | drastically increased the percentage of hemolysis | 10.9 | 3.67 ± 0.708 (≈ 21.8 µM) | None of the examined agents caused significant lysis | 12.0 | 40 ± 1.11 (≈ 238 µM) | 1.1 | – |
| c1ccc2c(c1)[nH]c1ccncc12 [Compound 3, 9H-3-azacarbazole] | 1.95 ± 0.263 (≈ 11.6 µM) | drastically increased the percentage of hemolysis | 14.4 | 2.22 ± 0.752 (≈ 13.2 µM) | None of the examined agents caused significant lysis | 16.4 | 32 ± 1.43 (≈ 191 µM) | 1.1 | AUC(0-t) [5, 6]: 1 ng·h/mL; CL/F [5, 6]: 194 mL/min/kg; Cmax [5, 6]: 4.67 ng/mL; MRT [5, 6]: 1.28 h; Vd/F [5, 6]: 19.7 L/kg; k el [5, 6]: 0.000165 s⁻¹; Tmax ([5]; male, CD-1, mouse, plasma, po, 0.02 mg/kg, tmax, mice, i.g., 0.02 mg/kg in 3-NE): ≤ 5 min; time plasma concentrations detectable after administration ([5]; mice, i.g., 0.02 mg/kg in 3-NE): at least 8 h; t0.5 ([5]; mice, i.g., 0.02 mg/kg in 3-NE, plasma, 0.02 mg/kg): 70.33 min; NHDF cell viability (NHDF cells): negligible effect on cell viability |
| Cc1cccc2c1[nH]c1ncccc12 [Compound 4, 8-methyl-9H-1-azacarbazole] | > 5 | – | – | > 5 | – | – | – | – | – |
| Cc1ccc2[nH]c3ncccc3c2c1 [Compound 5, 6-methyl-9H-1-azacarbazole] | > 5 | – | – | > 5 | – | – | – | – | – |
| Cc1ccn(C)c2nc3ccccc3c1-2 [Compound 6, 1,4-dimethyl-1H-1-azacarbazole] | 4.42 ± 0.458 (≈ 22.5 µM) | drastically increased the percentage of hemolysis | 2.8 | 4.18 ± 1.04 (≈ 21.3 µM) | None of the examined agents caused significant lysis | 2.6 | 11.8 ± 0.144 (≈ 59.9 µM) | 0.9 | Hemolysis with FP compared with CQ-FP, 50 μM (human erythrocytes [2]): less hemolytic than CQ-FP complexes |
| c1cnc2[nH]c3ncccc3c2c1 [Compound 7, 9H-1,8-diazacarbazole] | > 5 | – | – | > 5 | – | – | – | – | – |
| c1cc2c(cn1)[nH]c1cnccc12 [Compound 8, 9H-2,7-diazacarbazole] | > 5 | – | – | > 5 | – | – | – | – | – |
| c1cnc2c(c1)[nH]c1ncccc12 [Compound 9, 9H-1,5-diazacarbazole] | > 5 | – | – | > 5 | – | – | – | – | – |
| c1cnc2c(c1)[nH]c1cccnc12 [Compound 10, 9H-4,5-diazacarbazole] | > 5 | – | – | > 5 | – | – | – | – | – |
| Cn1cccc2c3cccnc3nc1-2 [Compound 11, 1-methyl-1H-1,8-diazacarbazole] | > 5 | – | – | > 5 | – | – | – | – | – |
| Cn1cccc2nc3cccnc3c1-2 [Compound 12, 4-methyl-4H-4,5-diazacarbazole] | 3.16 ± 0.621 (≈ 17.3 µM) | – | 10.7 | 3.99 ± 0.269 (≈ 21.8 µM) | None of the examined agents caused significant lysis | 13.5 | 42.8 ± 3.31 (≈ 234 µM) | 1.3 | Hemolysis with FP compared with CQ-FP, 50 μM (human erythrocytes [2]): less hemolytic than CQ-FP complexes; Hemolysis with FP compared with CQ-FP, 100 μM (human erythrocytes [2]; 100 μM): less hemolytic than CQ-FP complexes |

— paper PMC7588843 (Bioactive Materials, 2020)
